This note sets out measurements from US10385057B2, “Pyrazole compounds and methods of making and using same” (Lundbeck La Jolla Research Center, Inc., priority 2015, dated 2019).

Experiment [1] addresses T1, MAGL (Mus musculus, UniProt O35678).
T1 construct: mouse brain membrane fraction or cell lysates for mouse assays; from tissue
T1 sequence (O35678 1-303): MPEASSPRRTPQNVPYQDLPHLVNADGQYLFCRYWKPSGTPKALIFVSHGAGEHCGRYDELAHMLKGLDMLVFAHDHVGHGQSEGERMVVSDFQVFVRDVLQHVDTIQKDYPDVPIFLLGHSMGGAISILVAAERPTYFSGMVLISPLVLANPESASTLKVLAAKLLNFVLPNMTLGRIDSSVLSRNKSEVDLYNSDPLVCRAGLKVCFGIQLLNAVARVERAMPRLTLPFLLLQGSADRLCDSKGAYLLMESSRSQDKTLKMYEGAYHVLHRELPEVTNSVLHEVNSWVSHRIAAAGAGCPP
Nature of the experiment: In vitro competitive activity-based protein profiling, mouse MAGL. The conditions noted are these: for inhibition at 1 µM: read-out: MAGL % inh. 1 μM (mouse). Type of experiment: biochemical. In short, it runs like this: (§1)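 Mouse brain membranes or cell lysates (mouse) and human prefrontal cortex or cell membrane fractions (human), 1.0 mg/mL protein, preincubated with inhibitor 30 min at 37 °C, then FP-Rh or HT-01 probe 30 min at 37 °C. SDS-PAGE; MAGL and FAAH activity from in-gel fluorescence band intensity.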

In experiment [2] the target is T2, FAAH (Mus musculus, UniProt O08914).
T2 construct: mouse brain membrane fraction or cell lysates for mouse assays; from tissue
T2 sequence (O08914 1-579): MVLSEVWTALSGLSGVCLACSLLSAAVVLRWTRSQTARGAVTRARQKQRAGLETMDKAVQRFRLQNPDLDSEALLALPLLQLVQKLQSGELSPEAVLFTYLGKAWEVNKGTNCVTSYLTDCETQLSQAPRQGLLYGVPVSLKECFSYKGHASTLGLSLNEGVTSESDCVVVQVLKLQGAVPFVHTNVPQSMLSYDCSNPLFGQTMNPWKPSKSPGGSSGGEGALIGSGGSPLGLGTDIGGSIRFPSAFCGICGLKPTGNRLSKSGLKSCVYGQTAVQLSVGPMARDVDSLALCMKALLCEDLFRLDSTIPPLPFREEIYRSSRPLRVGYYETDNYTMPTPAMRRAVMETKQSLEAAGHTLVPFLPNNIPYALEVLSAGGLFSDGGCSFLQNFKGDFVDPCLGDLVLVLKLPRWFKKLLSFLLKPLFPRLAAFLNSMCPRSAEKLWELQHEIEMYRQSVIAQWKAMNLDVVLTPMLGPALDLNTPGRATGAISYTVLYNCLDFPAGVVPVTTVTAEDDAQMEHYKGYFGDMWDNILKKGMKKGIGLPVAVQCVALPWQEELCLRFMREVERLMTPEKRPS
The experiment can be described thus: In vitro competitive activity-based protein profiling, mouse FAAH. Type of experiment: biochemical. The conditions noted are these: for inhibition at 1 µM: read-out: FAAH % inh. 1 μM (mouse). An outline of the steps:
as §1

The target of experiment [3] is T1, MAGL. Nature of the experiment: Mouse brain proteomes from inhibitor treated mice, MAGL. Type of experiment: in vivo. The conditions noted are these: oral gavage, brain 4 h after administration, read-out: MAGL % inh. 5 mg/kg (mouse). The protocol:
Preparation of Mouse Brain Proteomes from Inhibitor Treated Mice.
Inhibitors were administered to wild-type C57Bl/6J by oral gavage in a vehicle of polyethylene glycol. Each animal was sacrificed 4 h following administration and brain proteomes were prepared and analyzed according to previously established methods (See Niphakis, M. J., et al. (2011) ACS Chem. Neurosci. and Long, J. Z., et al. Nat. Chem. Biol. 5:37-44).

Molecules are shown by their SMILES.

By IC50 is commonly meant the point on the concentration scale where inhibition reaches its midpoint. Higher therefore signals weaker potency in that assay. In the case of `CN(Cc1ccc(C(F)(F)F)cc1)[C@@H]1C[C@@H]2CN(C(=O)n3cc(C(N)=O)cn3)C[C@@H]2C1` [Example 55, 1-(cis-5-(methyl(4-(trifluoromethyl)benzyl)amino)octahydrocyclopenta[c]pyrrole-2-carbonyl)-1H-pyrazole-4-carboxamide], the IC50 in experiment [1] and in experiment [2] was not above 100 nM in each case. Further, the inhibition at 1 µM in experiment [1] (1 μM) and in experiment [2] (1 μM) was not below 75% each time. Also, the inhibition at 5 mg/kg in experiment [3] is not below 75%.

Consider `CN(Cc1ccccc1Cl)[C@@H]1C[C@@H]2CN(C(=O)n3cc(Cl)cn3)C[C@@H]2C1` [Example 59, (4-chloro-1H-pyrazol-1-yl)(trans-5-((2-chlorobenzyl)(methyl)amino)hexahydrocyclopenta[c]pyrrol-2(1H)-yl)methanone], for which the IC50 in experiment [1] and in experiment [2] was not above 100 nM in each case. Besides, in experiment [1] (1 μM), the “MAGL % inh. 1 μM (mouse)” value was “A (% inhibition greater than or equal to 75%)”. The “FAAH % inh. 1 μM (mouse)” value in experiment [2] (1 μM) is “A (% inhibition greater than or equal to 75%)”. In experiment [3], the inhibition at 5 mg/kg was not below 75%.

For the molecule `CN(Cc1ccccc1Cl)[C@@H]1C[C@@H]2CN(C(=O)n3cc(C(N)=O)cn3)C[C@@H]2C1` [Example 88, 1-(cis-5-((2-chlorobenzyl)(methyl)amino)octahydrocyclopenta[c]pyrrole-2-carbonyl)-1H-pyrazole-4-carboxamide], the IC50 in experiment [1] was 100 to 1000 nM; in experiment [2] it was not above 100 nM. In addition, the inhibition at 1 µM in experiment [1] (1 μM) and in experiment [2] (1 μM) was not below 75% throughout. The inhibition at 5 mg/kg in experiment [3] is not below 75%.

Consider `CN(Cc1ccccc1C(F)(F)F)[C@@H]1C[C@@H]2CN(C(=O)n3cc(C(N)=O)cn3)C[C@@H]2C1` [Example 90, 1-(cis-5-(methyl(2-(trifluoromethyl)benzyl)amino)octahydrocyclopenta[c]pyrrole-2-carbonyl)-1H-pyrazole-4-carboxamide], for which the inhibition at 1 µM in experiment [1] (1 μM) and in experiment [2] (1 μM) was not below 75% each time. In addition, the inhibition at 5 mg/kg in experiment [3] is not below 75%.

Turning to `CN(Cc1ccccc1Cl)[C@H]1C[C@@H]2CN(C(=O)n3cc(C(N)=O)cn3)C[C@@H]2C1` [Example 96, 1-(trans-5-((2-chlorobenzyl)(methyl)amino)octahydrocyclopenta[c]pyrrole-2-carbonyl)-1H-pyrazole-4-carboxamide], the IC50 in experiment [1] is 100 to 1000 nM; in experiment [2], not above 100 nM. Further, the inhibition at 1 µM in experiment [1] (1 μM) and in experiment [2] (1 μM) was not below 75% each time. In addition, the inhibition at 5 mg/kg in experiment [3] was not below 75%.

Regarding `O=C(N1CCC2(CCN(Cc3ccccc3Cl)C2)C1)n1cc(Cl)cn1` (centres unmarked) [Example 112, (4-chloro-1H-pyrazol-1-yl)(7-(2-chlorobenzyl)-2,7-diazaspiro[4.4]nonan-2-yl)methanone], the IC50 in experiment [1] is 100 to 1000 nM; in experiment [2], not above 100 nM. Also, the inhibition at 1 µM in experiment [1] (1 μM) and in experiment [2] (1 μM) was not below 75% throughout. The inhibition at 5 mg/kg in experiment [3] lay within 0 to 25%.

Take `O=C(N1CC2CN(Cc3ccccc3Cl)CC2C1)n1cc(Cl)cn1` (centres unmarked) [Example 116, (4-chloro-1H-pyrazol-1-yl)(5-(2-chlorobenzyl)hexahydropyrrolo[3,4-c]pyrrol-2(1H)-yl)methanone]: the results for the 50% inhibitory concentration (IC50) in experiment [1] and in experiment [2] were 100 to 1000 nM and not above 100 nM, respectively. For the same molecule, the inhibition at 1 µM in experiment [1] (1 μM) and in experiment [2] (1 μM) was not below 75% in each case. Further, in experiment [3], the inhibition at 5 mg/kg is 25 to 50%.

Turning to `O=C(N1CC2CN(Cc3ccc(Cl)cc3)CC2C1)n1cc(Cl)cn1` (centres unmarked) [Example 118, (4-chloro-1H-pyrazol-1-yl)(5-(4-chlorobenzyl)hexahydropyrrolo[3,4-c]pyrrol-2(1H)-yl)methanone], the figures for the half-maximal inhibitory concentration (IC50) in experiment [1] and in experiment [2] were 100 to 1000 nM and not above 100 nM, respectively. For the same molecule, the inhibition at 1 µM in experiment [1] (1 μM) and in experiment [2] (1 μM) was not below 75% in each case. For the same molecule, the inhibition at 5 mg/kg in experiment [3] was not below 75%.

In the case of `O=C(N1CC2CN(Cc3ccc(Cl)c(Cl)c3)CC2C1)n1cc(Cl)cn1` (centres unmarked) [Example 119, (4-chloro-1H-pyrazol-1-yl)(5-(3,4-dichlorobenzyl)hexahydropyrrolo[3,4-c]pyrrol-2(1H)-yl)methanone], the IC50 in experiment [1] and in experiment [2] was not above 100 nM throughout. Moreover, the inhibition at 1 µM in experiment [1] (1 μM) and in experiment [2] (1 μM) was not below 75% each time. In experiment [3], the inhibition at 5 mg/kg was not below 75%.

Consider `Cc1cc(-c2ccccc2)ccc1CN1CCC2(CCN(C(=O)n3cc(Cl)cn3)C2)C1` (centres unmarked) [Example 130, (4-chloro-1H-pyrazol-1-yl)(7-((3-methyl-[1,1′-biphenyl]-4-yl)methyl)-2,7-diazaspiro[4.4]nonan-2-yl)methanone], for which the IC50 in experiment [1] and in experiment [2] was not above 100 nM throughout. Besides, the inhibition at 1 µM in experiment [1] (1 μM) and in experiment [2] (1 μM) was not below 75% in each case. For the same molecule, the inhibition at 5 mg/kg in experiment [3] was not below 75%.

For `NC(=O)c1cnn(C(=O)N2CC[C@]3(CCN(Cc4ccc(N5CCOCC5)cc4C(F)(F)F)C3)C2)c1` [Example 195, (S)-1-(7-(4-morpholino-2-(trifluoromethyl)benzyl)-2,7-diazaspiro[4.4]nonane-2-carbonyl)-1H-pyrazole-4-carboxamide], the IC50 in experiment [1] is 100 to 1000 nM; in experiment [2], not above 100 nM. The inhibition at 1 µM in experiment [1] (1 μM) and in experiment [2] (1 μM) was not below 75% in each case. Besides, in experiment [3], the inhibition at 5 mg/kg is not below 75%.
